This note sets out measurements from publication PMC8744835, “Sterically Hindered Quaternary Phosphonium Salts (QPSs): Antimicrobial Activity and Hemolytic and Cytotoxic Properties” (International Journal of Molecular Sciences, 2021).

The test system of experiment [1] is Bacillus cereus ATCC 10702 NCTC 8035. Description: Antimicrobial activity, serial dilution technique in Mueller–Hinton Broth 2. The experiment is classed as cell-based. Conditions: Bacillus cereus, Bc, average of three ± SD, - means non-active. A digest of the protocol: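 Antibacterial activity against Bacillus cereus ATCC 10702 NCTC 8035 was measured by serial dilution in Mueller–Hinton Broth 2 at a bacterial load of 3.0 × 10^5 cfu/mL. Cultures were kept at 37 °C and growth was read every 24 h for 5 days. The experiment was done three times, and MIC and bactericidal concentrations were determined.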

Experiment [2] has as its system Enterococcus faecalis ATCC 2921. The experiment is described as above. The settings on record: Ef; average of three ± SD; - means non-active. The experiment is classed as cell-based. A digest of the protocol: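 Antibacterial activity against Enterococcus faecalis ATCC 2921 was assessed by serial dilution in Mueller–Hinton Broth 2 with a bacterial load of 3.0 × 10^5 cfu/mL. Cultures were incubated at 37 °C, with growth recorded every 24 h for 5 days, and the experiment was performed three times.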

Experiment [3] concerns Escherichia coli ATCC 25922. The description is as above. The experiment is classed as cell-based. The settings on record: Escherichia coli, ATCC25922, Ec; average of three ± SD; - means non-active; read-out: Minimum Inhibitory Concentration (MIC), Ec. A digest of the protocol:
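Compounds were serially diluted in Mueller–Hinton Broth 2 and inoculated at 3.0 × 10^5 cfu/mL. Cultures were then incubated at 37 °C with growth recorded daily for 5 days. The MIC was taken as the minimum concentration inhibiting growth, from three experiments.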

In experiment [4] the test system is Pseudomonas aeruginosa ATCC 9027. The description is as above. Type of experiment: cell-based. Conditions: Pseudomonas aeruginosa, ATCC9027, Pa, average of three ± SD, - means non-active.
The subject of experiment [5] is Staphylococcus aureus ATCC 6538P FDA 209P. The experiment is described as above. The experiment is classed as cell-based. Conditions: Staphylococcus aureus, Sa, average of three ± SD, - means non-active. A digest of the protocol: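 Antimicrobial activity against Staphylococcus aureus ATCC 6538P FDA 209P was measured by serial dilution in Mueller–Hinton Broth 2 at a bacterial load of 3.0 × 10^5 cfu/mL. Cultures were incubated at 37 °C, growth was recorded every 24 h for 5 days, and the experiment was done three times.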

The test system of experiment [6] is Candida albicans ATCC 10231. Description: Fungicidal activity, serial dilution technique. Type of experiment: cell-based. The settings on record: average of three ± SD, - means non-active. In outline: (§1)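 Inoculum 3.0 × 10^5 cfu/mL; serial dilution, MH Broth 2; 37 °C; read q24 h × 5 d; MIC = lowest inhibitory conc.; n = 3.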
Experiment [7] concerns Trichophyton mentagrophytes var. gypseum 1773. Description: Fungicidal activity, serial dilution technique. Type of experiment: cell-based. The settings on record: Tm; average of three ± SD; - means non-active. A digest of the protocol: as §1
For the next experiment, the system named is P. aeruginosa. Description: Zone-of-inhibition test of coated PC+ plastic sample. The experiment is classed as cell-based, Pseudomonas aeruginosa. The settings on record: PC+ sample immersed 1 min in 1% solution of 12a in ethanol, 37 °C 24 h. The procedure:
(§2) The inhibition-zone test is a quick and qualitative way to measure the ability of an antimicrobial agent to suppress microbial growth. The sensitivity of the method is quite high and even a small amount of residual biocide in a model system can be detected. […] In this experiment, we used cultures of the bacteria P. aeruginosa and S. aureus. First, the microbial suspension was spread on a sterile agar plate. Then, a plastic sample (PC+), which was preliminarily immersed for 1 min in a 1% solution of compound 12a in ethanol, was placed in the center of the Petri dish with agar. During the incubation period, the inoculum bacteria can only grow where is no antimicrobial agent. If the active agent is washed out of the sample into the environment (in this case, agar), bacterial growth in the area around the sample is suppressed. The width of this area is determined by the diffusion of the active compound in the vicinity. […] From the results obtained, it is clear that a relatively stable surface coating was achieved using a simple experimental procedure.
(§3) This sample was tested for possible release of the active compound. Tests were performed on a culture of Gram-negative bacteria P. aeruginosa and Gram-positive bacteria S. aureus. […] Then, Petri dishes were placed in an incubator at 37 °C for 24 h, and the presence of inhibition zones was evaluated.

A further experiment has as its system S. aureus. The experiment is described as above. Conditions: PC+ sample immersed 1 min in 1% solution of 12a in ethanol, 37 °C 24 h. The experiment is classed as cell-based, Staphylococcus aureus. The procedure: as §2, §3

`CCCCCCCCCCCC[P+](C(C)(C)C)(C(C)(C)C)C(C)(C)C` [Compound 12a, tri-tert-butyl(n-dodecyl)phosphonium]: the MBC was determined as 62.5 ± 5.3 µg/mL in [1] (read-out: Minimum Bactericidal and Fungicidal Concentration (MBC, MFC), Bc); 125 ± 11 µg/mL in experiment [4] (read-out: Minimum Bactericidal and Fungicidal Concentration (MBC, MFC), Pa); 0.5 ± 0.03 µg/mL in experiment [5] (read-out: Minimum Bactericidal and Fungicidal Concentration (MBC, MFC), Sa). In addition, the MIC was determined as 1.9 ± 0.01 µg/mL in experiment [1] (read-out: Minimum Inhibitory Concentration (MIC), Bc); 7.8 ± 0.6 µg/mL in [3]; 62.5 ± 5.5 µg/mL in experiment [4] (read-out: Minimum Inhibitory Concentration (MIC), Pa); 0.5 ± 0.03 µg/mL in experiment [5] (read-out: Minimum Inhibitory Concentration (MIC), Sa); 15.6 ± 1.4 µg/mL in [6] (Candida albicans, ATCC10231, Ca, read-out: Minimum Inhibitory Concentration (MIC), Ca). Moreover, the “Minimum Bactericidal and Fungicidal Concentration (MBC, MFC), Ef” value in experiment [2] is reported as 1.9 ± 0.1 µg/mL. Further, the “Minimum Inhibitory Concentration (MIC), Ef” value in [2] is given as 0.9 ± 0.06 µg/mL. Besides, in experiment [6] (Ca), the “Minimum Bactericidal and Fungicidal Concentration (MBC, MFC), Ca” value worked out at 31.3 ± 2.7 µg/mL. Moreover, the “Minimum Bactericidal and Fungicidal Concentration (MBC, MFC), Tm” value in experiment [7] came to 15.6 ± 1.3 µg/mL. The “Minimum Inhibitory Concentration (MIC), Tm” value in experiment [7] was 15.6 ± 1.2 µg/mL. Also, the zone of inhibition result in the experiment with P. aeruginosa and with S. aureus was “no zones of inhibition” each time.
